Results taken from US20160002217A1, “FUNGICIDAL 3--OXADIAZOLONE DERIVATIVES” (BAYER CROPSCIENCE AG, priority 2013, published 2016).
Marks after values point to notes of the source that are not given here.

Legend:
[1] = pH 2.7
Phytophthora infestans = type: in vivo; details: tomato plants, preventive spray, 500 ppm of active ingredient, evaluated 5 days after inoculation

SMILES | LogP [1] | % efficacy (Phytophthora infestans)
CC(C)(C)OC(=O)Nc1cccc(CON=C(C(N)=NO)c2ccccn2)n1 [Example V-01] | 1.76^[a] | 
C#CCCOC(=O)Nc1cccc(CON=C(c2ccncc2)c2nc(=O)on2C)n1 [Example 76] | 1.74^[a] | 
C#CCCOC(=O)Nc1cccc(CON=C(c2ccccn2)c2noc(=O)n2C)n1 [Example 7] | 2.56^[a] | 85%
CCCCCC(=O)Nc1cccc(CON=C(c2ncccn2)c2noc(=O)n2C)n1 [Example 60] | 2.61^[a] | 90%
CCCCCOC(=O)Nc1cccc(CON=C(c2ccccn2)c2noc(=O)n2C)n1 [Example 12] | 3.67^[a] | 85%
CCCCOC(=O)Nc1cccc(CON=C(c2cccnc2)c2nc(=O)on2C)n1 [Example 57] | 2.47^[a] | 95%
CCCCCC(=O)Nc1cccc(CON=C(c2cccnc2)c2nc(=O)on2C)n1 [Example 63] | 2.39^[a] | 75%
CC(C)(C)OC(=O)Nc1cccc(CON=C(C(N)=NO)c2ncccn2)n1 [Example V-07] | 1.58 + 1.87^[a] | 
CCn1oc(=O)nc1C(=NOCc1cccc(NC(=O)OC(C)(C)C)n1)c1ccccn1 [Example 8] | 2.84^[a] | 
Cn1c(C(=NOCc2csc(N(COCC[Si](C)(C)C)C(=O)OC(C)(C)C)n2)c2cccs2)noc1=O [Example 70] | 5.84^[a] | 
C#CCCOC(=O)Nc1cccc(CON=C(c2cccnc2)c2noc(=O)n2C)n1 [Example 51] | 2.32^[a] | 90%
CCCCCC(=O)Nc1nc(CON=C(c2ccsc2)c2noc(=O)n2C)cs1 [Example 73] | 3.43^[a] | 100%
CCCCC(=O)Nc1cccc(CON=C(c2ccncc2)c2noc(=O)n2C)n1 [Example 83] | 2.34^[a] | 100%
Cn1c(C(=NOCc2cccc(NC(=O)OC(C)(C)C)n2)c2ncccn2)noc1=O (single isomer, unassigned) [Example 28] | 2.56^[a][c] | 
Cn1c(C(=NOCc2cccc(N)n2)c2cccnc2)noc1=O [Example 35] | 0.52 ± 0.46^[a] | 
Cc1nc(CON=C(C#N)c2ccsc2)cs1 [Example IV-09] | 1.45^[a] | 
CCCCOC(=O)Nc1cccc(CON=C(c2ccccn2)c2nc(=O)on2CC)n1 [Example 5] | 2.96^[a] | 
Cn1c(C(=NOCc2csc(NC(=O)COc3ccccc3)n2)c2cccs2)noc1=O [Example 86] | 3.18^[a] | 
CCCCC(=O)Nc1cccc(CON=C(c2cccnc2)c2nc(=O)on2C)n1 [Example 62] | 2.04^[a] | 
CCCCOC(=O)Nc1cccc(CON=C(c2ccccn2)c2nc(=O)on2C)n1 [Example 21] | 2.70^[a] | 
Cn1c(C(=NOCc2cccc(NC(=O)OC(C)(C)C)n2)c2ncccn2)noc1=O (single isomer, unassigned) [Example 27] | 2.66^[a][b] | 
CC(C)(C)OC(=O)N(COCC[Si](C)(C)C)c1nc(CON=C(C(N)=NO)c2cccs2)cs1 [Example V-04] | 4.60^[a] | 
Cn1c(C(=NOCc2csc(NC(=O)COc3ccccc3)n2)c2ccsc2)noc1=O [Example 67] | 3.22^[a] | 98%
Cn1oc(=O)nc1C(=NOCc1cccc(NC(=O)OC(C)(C)C)n1)c1cccnc1 [Example 31] | 2.28 + 2.37^[a] | 
CCCCCOC(=O)Nc1cccc(CON=C(c2ccccn2)c2nc(=O)on2CC)n1 [Example 2] | 3.42^[a] | 
CCn1oc(=O)nc1C(=NOCc1cccc(N)n1)c1ccccn1 [Example 1] | 0.69^[a] | 

SMILES | LogP [1] | % efficacy (Phytophthora infestans)
CCCCCC(=O)Nc1cccc(CON=C(c2ccccn2)c2nc(=O)on2CC)n1 [Example 11] | 2.84^[a] | 
CC(C)(C)OC(=O)N(COCC[Si](C)(C)C)c1nc(CON=C(c2noc(=O)[nH]2)c2cccs2)cs1 [Example 72] | 5.45^[a] | 
Cn1oc(=O)nc1C(=NOCc1cccc(NC(=O)OC(C)(C)C)n1)c1ccncc1 [Example 37] | 2.21^[a] | 80%
CCCCC(=O)Nc1cccc(CON=C(c2ncccn2)c2nc(=O)on2C)n1 [Example 58] | 1.84^[a] | 
CCCCOC(=O)Nc1cccc(CON=C(c2ccncc2)c2nc(=O)on2C)n1 [Example 79] | 2.32^[a] | 
CCCCCC(=O)Nc1cccc(CON=C(c2ccncc2)c2nc(=O)on2C)n1 [Example 77] | 2.23^[a] | 
C#CCCOC(=O)Nc1cccc(CON=C(c2cccnc2)c2nc(=O)on2C)n1 [Example 56] | 1.88^[a] | 89%
Cn1c(C(=NOCc2csc(N)n2)c2cccs2)noc1=O [Example 81] | 1.38^[a] | 
Cn1c(C(=NOCc2cccc(N)n2)c2ncccn2)noc1=O [Example 30] | 0.39^[a] | 
Cn1c(C(=NOCc2csc(NC(=O)OC(C)(C)C)n2)c2cccs2)noc1=O [Example 42] | 3.35^[a] | 93%
CCCCCC(=O)Nc1cccc(CON=C(c2ccncc2)c2noc(=O)n2C)n1 [Example 84] | 2.71^[a] | 100%
CCCCC(=O)Nc1cccc(CON=C(c2ccccn2)c2nc(=O)on2CC)n1 [Example 6] | 2.49^[a] | 
Cn1oc(=O)nc1C(=NOCc1cccc(NC(=O)OC(C)(C)C)n1)c1ncccn1 [Example 25] | 2.14^[a] | 
Cn1c(C(=NOCc2csc(NC(=O)c3ccc(F)cc3)n2)c2ccsc2)noc1=O [Example 64] | 3.26^[a] | 
CCCCCOC(=O)Nc1cccc(CON=C(c2cccnc2)c2noc(=O)n2C)n1 [Example 49] | 3.37^[a] | 99%
CCCCOC(=O)Nc1cccc(CON=C(c2cccnc2)c2noc(=O)n2C)n1 [Example 50] | 2.98^[a] | 100%
N#CC(=NOCc1csc(NC(=O)c2ccc(F)cc2)n1)c1ccsc1 [Example IV-10] | 3.51^[a] | 
CC(C)(C)OC(=O)Nc1cccc(CON=C(c2ncccn2)c2noc(=O)[nH]2)n1 [Example 26] | 2.27^[a] | 
CC(C)(C)OC(=O)N(COCC[Si](C)(C)C)c1nc(CON=C(C#N)c2cccs2)cs1 [Example IV-06] | 6.35^[a] | 
CC(C)(C)OC(=O)Nc1nc(CON=C(C(N)=NO)c2cccs2)cs1 [Example V-08] | 2.26^[a] | 
CCCCCC(=O)Nc1cccc(CON=C(c2ccccn2)c2nc(=O)on2C)n1 [Example 18] | 2.61^[a] | 
Cn1oc(=O)nc1C(=NOCc1cccc(N)n1)c1cccnc1 [Example 34] | 1.19^[a] | 
CC(C)(C)OC(=O)N(COCC[Si](C)(C)C)c1nc(CON=C(c2ccsc2)c2noc(=O)[nH]2)cs1 [Example 66] | 5.45^[a] | 
CC(C)(C)OC(=O)Nc1cccc(CON=C(C(N)=NO)c2ccncc2)n1 [Example V-06] | 1.53^[a] | 
Cn1c(C(=NOCc2cccc(N)n2)c2ccncc2)noc1=O [Example 40] | 0.41^[a] | 
CC(C)(C)OC(=O)Nc1cccc(CON=C(C#N)c2ncccn2)n1 [Example IV-03] | 2.82^[a] | 

SMILES | LogP [1] | % efficacy (Phytophthora infestans)
CCCCCC(=O)Nc1cccc(CON=C(c2cccnc2)c2noc(=O)n2C)n1 [Example 47] | 2.86^[a] | 
Cn1oc(=O)nc1C(=NOCc1cccc(N)n1)c1ccncc1 [Example 39] | 1.20^[c] | 
CC(C)(C)OC(=O)Nc1nc(CON=C(C#N)c2ccsc2)cs1 [Example IV-01] | 3.62^[a] | 
Cn1c(C(=NOCc2csc(NC(=O)c3ccc(F)cc3)n2)c2cccs2)noc1=O [Example 85] | 3.20^[a] | 
Cn1c(C(=NOCc2csc(N(COCC[Si](C)(C)C)C(=O)OC(C)(C)C)n2)c2ccsc2)noc1=O [Example 65] | 5.86^[a] | 
CC(C)(C)OC(=O)Nc1nc(CON=C(C(N)=NO)c2ccsc2)cs1 [Example V-02] | 2.17^[a] | 
CN(C(=O)OC(C)(C)C)c1nc(CON=C(c2cccs2)c2noc(=O)n2C)cs1 [Example 41] | 4.24^[a] | 
CCCCC(=O)Nc1cccc(CON=C(c2ncccn2)c2noc(=O)n2C)n1 [Example 61] | 2.23^[a] | 
CCCCC(=O)Nc1cccc(CON=C(c2ccncc2)c2nc(=O)on2C)n1 [Example 75] | 1.88^[a] | 
CCOC(=O)c1nc(CON=C(C(N)=NO)c2ccsc2)cs1 [Example V-05] | 1.70^[a] | 
CC(C)(C)OC(=O)Nc1nc(CON=C(c2ccsc2)c2noc(=O)[nH]2)cs1 [Example 20] | 3.20^[a] | 
CCOC(=O)c1nc(CON=C(C#N)c2ccsc2)cs1 [Example IV-08] | 3.15^[a] | 
CC(C)(C)OC(=O)Nc1nc(CON=C(c2noc(=O)[nH]2)c2cccs2)cs1 [Example 24] | 3.26^[a] | 
CCCCCOC(=O)Nc1nc(CON=C(c2ccsc2)c2noc(=O)n2C)cs1 [Example 68] | 3.81^[a] | 
CC(C)(C)OC(=O)Nc1nc(CON=C(C#N)c2cccs2)cs1 [Example IV-05] | 3.65^[a] | 
CCCCOC(=O)Nc1cccc(CON=C(c2ncccn2)c2nc(=O)on2C)n1 [Example 46] | 2.23^[a] | 
CC(C)(C)OC(=O)Nc1cccc(CON=C(c2ccncc2)c2noc(=O)[nH]2)n1 [Example 36] | 2.37^[a] | 
Cn1oc(=O)nc1C(=NOCc1cccc(N)n1)c1ncccn1 [Example 29] | 0.92^[a] | 
CCCCC(=O)Nc1cccc(CON=C(c2ccccn2)c2nc(=O)on2C)n1 [Example 10] | 2.25^[a] | 
Cn1c(C(=NOCc2cccc(N)n2)c2ccccn2)noc1=O [Example 14] | 0.85^[a] | 
CCCCCC(=O)Nc1cccc(CON=C(c2ncccn2)c2nc(=O)on2C)n1 [Example 48] | 2.18^[a] | 
CC(C)(C)OC(=O)Nc1cccc(CON=C(C#N)c2ccncc2)n1 [Example IV-04] | 3.05^[a] | 
C#CCCOC(=O)Nc1cccc(CON=C(c2ncccn2)c2noc(=O)n2C)n1 [Example 54] | 2.08^[a] | 
CCCCCOC(=O)Nc1cccc(CON=C(c2ccncc2)c2nc(=O)on2C)n1 [Example 78] | 2.68^[a] | 
CC(C)(C)OC(=O)N(C(=O)OC(C)(C)C)c1nc(CON=C(C#N)c2ccsc2)cs1 [Example IV-11] | 4.90^[a] | 
